The term GI50 denotes the concentration giving 50% growth inhibition. A low value points to more potent growth inhibition. A word on the inhibition: it is the percentage by which the read-out fell short of the control.

One assay relates to AMPK. As to the kind of experiment: AMPK activation effect (AMPK [pT172] ELISA) in MCF7 cells. It is filed as cell-based, human. As to conditions: 24 hours; for AMPK activation effect (%) 10 μM / AMPK activation effect (%) 50 μM: AMPKα Thr172 phosphorylation relative to untreated cells; for AC150: concentration at which AMPK activation reached 150%. On the procedure: ELISA kit (Invitrogen, Catalog No. KH00651).
MCF7 cells were cultured in a DMEM medium supplemented with 10% fatal bovine serum (commercially available from Gibco Life Technologies (US)). Thereafter, the cultured MCF7 cells were put into a 6-well plate with approximately 5×10^5 cells per well, and cultured in an incubator supplied with 5% CO2. Culture media were treated with the derivatives synthesized in the Examples at concentrations of 5, 10 and 50 uM, and then cultured for 24 hours. […] Subsequently, the cells were lysed according to a method presented in the operation manual of the AMPK [pT172] ELISA kit, and 20 μg of a cell lysate was then yielded through protein assay. Thereafter, the AMPK activation effect was obtained by determining a degree of phosphorylation of a 172nd threonine residue (Thr172) of the AMPKα from the cell lysate according to the method presented in the operation manual of the AMPK [pT172] ELISA kit.
(In general: An ELISA detects its analyte on a solid surface through an enzyme-linked reagent.)

The next assay concerns HCT116 cells. The assay can be described thus: Effect of inhibiting cancer cell proliferation (MTT) in HCT116 cells. The assay is classed as cell-based, human. The note with it: Homo sapiens, HCT-116, 48 h; for inhibition at 100 µM: read-out: Cell growth inhibition (%) at 100 μM. The source says: HCT116 cells derived from human colorectal cancer were used, and an effect of inhibiting cancer cell proliferation of the biguanide derivative was confirmed by measuring a concentration value (cell growth inhibition concentration, GIC50) at which cell growth was inhibited by 50% using a 3-(4,5-dimethylthiazol-2-yl)-2,5-diphenyltetrazolium bromide (MTT) reagent.
First, HCT116 cells (purchased from the KCLB) were put on a 96-well plate and cultured in a DMEM medium supplemented with 10% fatal bovine serum (commercially available from Gibco Life Technologies (US)) for 16 hours so that approximately 5,000 cells were counted in each well. Subsequently, to obtain the GIC50 value of each compound, the culture media were treated with 100 μM, 25 μM, 6.25 μM, 1.56 μM or 0.39 μM of the compound, and then cultured for 48 hours. In order to determine whether the cells survived after treatment with the compounds, MTT (commercially available from AMRESCO (US)) was added to the culture media which were then cultured for another 3 hours. Formed formazane crystals were dissolved using dimethyl sulfoxide (DMSO) and the absorbance of the resulting solution was measured at 560 nm. After the 48-hour culture, a ratio of a living cell count on a well plate treated with the compounds synthesized in the Examples to a cell count cultured on a well plate not treated with the compound was indicated as cell viability (%) according to the concentration of each treated compound. The cell viability (%) was used to plot a cell viability curve graph and calculate a concentration (GIC50) value of the compound at which the growth was inhibited by 50%, thereby confirming the inhibition effect of cancer cell proliferation.

For the molecule `Cl.N=C(NC(=N)N1CC=CC1)Nc1ccc(OC(F)(F)F)cc1` [Example 4, N1-1,2-dihydropyrrole-N5-(4-trifluoromethoxy)phenyl biguanide hydrochloride], in the assay with AMPK, the “AMPK activation effect (%) 10 μM” value is given as 201%, the “AMPK activation effect (%) 50 μM” value is on record as 584% and the AC150 was found to be 5.0 µM. For the same molecule, in the assay on HCT116 cells, halving of growth (GI50) required 19.1 µM and the inhibition at 100 µM is 99.7%.

For the molecule `Cl.N=C(NC(=N)N1CC=CC1)Nc1ccc(C(F)(F)F)cc1` [Example 5, N1-1,2-dihydropyrrole-N5-(4-trifluoromethyl)phenyl biguanide hydrochloride], in the assay with AMPK, the “AMPK activation effect (%) 10 μM” value is 235%, the “AMPK activation effect (%) 50 μM” value is listed as 223% and the AC150 was 2.8 µM. Moreover, in the assay on HCT116 cells, it took 18 µM to inhibit growth by half (GI50) and the inhibition at 100 µM was 99.7%.

On to `Cl.N=C(NC(=N)N1CC=CC1)Nc1cccc(C(F)(F)F)c1` [Example 6, N1-1,2-dihydropyrrole-N5-(3-trifluoromethyl)phenyl biguanide hydrochloride], for which, in the assay on AMPK, the “AMPK activation effect (%) 10 μM” value is 124%, the “AMPK activation effect (%) 50 μM” value turned out to be 136% and the AC150 was over 50 µM. For the same molecule, in the assay on HCT116 cells, the 50% growth inhibitory concentration (GI50) was 12.9 µM and the inhibition at 100 µM was determined as 99.6%.

For the molecule `Cl.N=C(NC(=N)N1CC=CC1)Nc1ccc(F)cc1` [Example 7, N1-1,2-dihydropyrrole-N5-(4-fluoro)phenyl biguanide hydrochloride], in the assay on AMPK, the “AMPK activation effect (%) 10 μM” value is given as 94%, the “AMPK activation effect (%) 50 μM” value came out at 109% and the AC150 is over 50 µM. In addition, in the assay with HCT116 cells, the 50% growth inhibitory concentration (GI50) was over 100 µM and the inhibition at 100 µM was determined as 19.8%.

As for `Cl.N=C(NC(=N)N1CC=CC1)Nc1ccc(Cl)cc1` [Example 8, N1-1,2-dihydropyrrole-N5-(4-chloro)phenyl biguanide hydrochloride], in the assay with AMPK, the “AMPK activation effect (%) 10 μM” value worked out at 139%, the “AMPK activation effect (%) 50 μM” value was 515% and the AC150 was found to be 8.3 µM. For the same molecule, in the assay on HCT116 cells, the concentration for 50% growth inhibition (GI50) came out at 42.8 µM and the inhibition at 100 µM amounted to 99.1%.

`Cl.N=C(NC(=N)N1CC=CC1)Nc1ccc(Br)cc1` [Example 9, N1-1,2-dihydropyrrole-N5-(4-bromo)phenyl biguanide hydrochloride]: in the assay with AMPK, the “AMPK activation effect (%) 10 μM” value came out at 169%, the “AMPK activation effect (%) 50 μM” value turned out to be 371% and the AC150 stood at 9.0 µM. In the assay with HCT116 cells, it took 28.8 µM to inhibit growth by half (GI50) and the inhibition at 100 µM is 99.5%.

On to `Cl.N=C(NC(=N)N1CC=CC1)Nc1ccc(OC(F)(F)F)c(Cl)c1` [Example 10, N1-1,2-dihydropyrrole-N5-(3-chloro,4-trifluoromethoxy)phenyl biguanide hydrochloride], for which, in the assay on AMPK, the “AMPK activation effect (%) 10 μM” value is 408% and the AC150 came out at 1.4 µM. Further, in the assay with HCT116 cells, growth was halved (GI50) at 8.3 µM and the inhibition at 100 µM was 97.9%.

As for `Cl.N=C(NC(=N)N1CC=CCC1)Nc1ccc(OC(F)(F)F)c(Cl)c1` [Example 11, N1-1,2,3,6-tetrahydropyridine-N5-(3-chloro,4-trifluoromethoxy) phenyl biguanide hydrochloride], in the assay with AMPK, the “AMPK activation effect (%) 10 μM” value is recorded as 637% and the AC150 stood at 1.4 µM. In the assay on HCT116 cells, the 50% growth inhibitory concentration (GI50) was found to be 3 µM and the inhibition at 100 µM stood at 98%.

With `Cl.N=C(NCc1cccc(C(F)(F)F)c1)NC(=N)N1CC=CC1` [Example 12, N1-1,2-dihydropyrrole-N5-(3-trifluoromethyl)benzyl biguanide hydrochloride], in the assay on AMPK, the “AMPK activation effect (%) 10 μM” value is listed as 97%, the “AMPK activation effect (%) 50 μM” value turned out to be 357% and the AC150 was determined as 13.8 µM. Also, in the assay on HCT116 cells, halving of growth (GI50) required 84.8 µM and the inhibition at 100 µM turned out to be 53.8%.

`Cl.N=C(NCc1ccc(C(F)(F)F)cc1)NC(=N)N1CC=CC1` [Example 13, N1-1,2-dihydropyrrole-N5-(4-trifluoromethyl)benzyl biguanide hydrochloride]: in the assay on AMPK, the “AMPK activation effect (%) 10 μM” value worked out at 135%, the “AMPK activation effect (%) 50 μM” value worked out at 462% and the AC150 is 9.0 µM. In the assay with HCT116 cells, the concentration for 50% growth inhibition (GI50) was 77.1 µM and the inhibition at 100 µM was 57.8%.

Turning to `Cl.N=C(NCc1cccc(OC(F)(F)F)c1)NC(=N)N1CC=CC1` [Example 14, N1-1,2-dihydropyrrole-N5-(3-trifluoromethoxy)benzyl biguanide hydrochloride], in the assay on AMPK, the “AMPK activation effect (%) 10 μM” value is 151%, the “AMPK activation effect (%) 50 μM” value is given as 507% and the AC150 amounted to 8.4 µM. For the same molecule, in the assay with HCT116 cells, halving of growth (GI50) required 17.5 µM and the inhibition at 100 µM was 98.8%.

As for `CC1=CCN(C(=N)NC(=N)Nc2ccc(OC(F)(F)F)cc2)C1.Cl` [Example 15, N1-(3-methyl)-1,2-dihydropyrrole-N5-(4-trifluoromethoxy)phenyl biguanide hydrochloride], in the assay on AMPK, the “AMPK activation effect (%) 10 μM” value amounted to 554% and the AC150 stood at 1.6 µM. Besides, in the assay with HCT116 cells, the GI50 was determined as 10.1 µM and the inhibition at 100 µM worked out at 99.2%.

As for `CC1=CCN(C(=N)NC(=N)Nc2ccc(C(F)(F)F)cc2)C1.Cl` [Example 16, N1-(3-methyl)-1,2-dihydropyrrole-N5-(4-trifluoromethyl)phenyl biguanide hydrochloride], in the assay with AMPK, the “AMPK activation effect (%) 10 μM” value worked out at 398% and the AC150 was determined as 1.7 µM. In addition, in the assay with HCT116 cells, the concentration for 50% growth inhibition (GI50) came to 10.8 µM and the inhibition at 100 µM was 99.3%.

As to `CC1=CCN(C(=N)NC(=N)Nc2ccc(Cl)cc2)C1.Cl` [Example 17, N1-(3-methyl)-1,2-dihydropyrrole-N5-(4-chloro)phenyl biguanide hydrochloride], in the assay on AMPK, the “AMPK activation effect (%) 10 μM” value is given as 208% and the AC150 came out at 4.7 µM. Moreover, in the assay on HCT116 cells, the 50% growth inhibitory concentration (GI50) amounted to 13.9 µM and the inhibition at 100 µM is 99.7%.

As to `CC1=CCN(C(=N)NC(=N)Nc2ccc(Cl)c(C(F)(F)F)c2)C1.Cl` [Example 18, N1-(3-methyl)-1,2-dihydropyrrole-N5-(4-chloro, 3-trifluoromethyl)phenyl biguanide hydrochloride], the AC150 in the assay on AMPK came to 0.81 µM. In the assay on HCT116 cells, the 50% growth inhibitory concentration (GI50) is 2.6 µM and the inhibition at 100 µM was 99.5%.

As to `CC1=CCN(C(=N)NC(=N)Nc2cccc(C(F)(F)F)c2)C1.Cl` [Example 19, N1-(3-methyl)-1,2-dihydropyrrole-N5-(3-trifluoromethyl)phenyl biguanide hydrochloride], in the assay on AMPK, the “AMPK activation effect (%) 10 μM” value stood at 306% and the AC150 was determined as 1.5 µM. In the assay with HCT116 cells, the GI50 is 9.1 µM and the inhibition at 100 µM was found to be 99.6%.

As to `CC1=CCN(C(=N)NC(=N)Nc2ccc(F)cc2)C1.Cl` [Example 20, N1-(3-methyl)-1,2-dihydropyrrole-N5-(4-fluoro)phenyl biguanide hydrochloride], in the assay on AMPK, the “AMPK activation effect (%) 10 μM” value is reported as 83%, the “AMPK activation effect (%) 50 μM” value is on record as 172% and the AC150 was 38.3 µM. In addition, in the assay with HCT116 cells, it took 54.8 µM to inhibit growth by half (GI50) and the inhibition at 100 µM came to 93.1%.

On to `CC1=CCN(C(=N)NC(=N)Nc2ccc(Br)cc2)C1.Cl` [Example 21, N1-(3-methyl)-1,2-dihydropyrrole-N5-(4-bromo)phenyl biguanide hydrochloride], for which, in the assay with AMPK, the “AMPK activation effect (%) 10 μM” value is given as 156% and the AC150 came out at 11.9 µM. Besides, in the assay on HCT116 cells, it took 10.4 µM to inhibit growth by half (GI50) and the inhibition at 100 µM worked out at 99.4%.

As for `COc1ccc(NC(=N)NC(=N)N2CC=C(C)C2)cc1.Cl` [Example 22, N1-(3-methyl)-1,2-dihydropyrrole-N5-(4-methoxyl)phenyl biguanide hydrochloride], in the assay with AMPK, the “AMPK activation effect (%) 10 μM” value was determined as 116%, the “AMPK activation effect (%) 50 μM” value was found to be 209% and the AC150 was 24.5 µM. In addition, in the assay with HCT116 cells, it took 18.6 µM to inhibit growth by half (GI50) and the inhibition at 100 µM turned out to be 37.1%.

Take `COc1ccc(NC(=N)NC(=N)N2CC=C(C)C2)cc1OC.Cl` [Example 23, N1-(3-methyl)-1,2-dihydropyrrole-N5-(3,4-dimethoxy)phenyl biguanide hydrochloride]: in the assay with AMPK, the “AMPK activation effect (%) 10 μM” value worked out at 57%, the “AMPK activation effect (%) 50 μM” value is 279% and the AC150 was 21.3 µM. For the same molecule, in the assay with HCT116 cells, it took 89.9 µM to inhibit growth by half (GI50) and the inhibition at 100 µM came out at 29.5%.

For the origin of these results see patent publication US9884821B2, “N1-cyclic amine-N5-substituted biguanide derivatives, methods of preparing the same and pharmaceutical composition comprising the same” (IMMUNOMET THERAPEUTICS INC., priority 2013, dated 2018).
